Test results published in ChEMBL document CHEMBL3507680, “University of Dundee, Gates Library screen for HepG2 cell viability”.

Experiment: Human HepG2 cell viability assay in 384 well format
Type: toxicity, cell-based
Design: dose 125 nL, time 70.5 hour; cytotoxicity at 70.5 h: concentration not given beside the values
Conditions: HepG2 cells, read-out: Inhibition
With `Cc1ccc(CN2C[C@H](N3CCOCC3)[C@@H]3OCCC[C@@H]32)o1` the cytotoxicity at 70.5 h was -0.951%.
In the case of `CCN(Cc1ccncc1)CC1(O)CCN(C(=O)c2cccc(C)c2)C1` (configuration not stated), the cytotoxicity at 70.5 h is reported as -4.75%.
Work on `COC1CN(C(=O)CC(C)(C)C)CCC(=O)N(C)c2ccccc21` (configuration not stated) yielded a cytotoxicity at 70.5 h of -4.95%.
For `CCN(CC)C(=O)CSc1ccc(C(F)(F)F)cn1`, the cytotoxicity at 70.5 h was -6.72%.
For `Cc1cccc(-c2[nH]ncc2CNCC2CCN(CC(C)O)CC2)c1` (configuration not stated), the cytotoxicity at 70.5 h was -4.28%.
For `CC(C)S(=O)(=O)N1CCCC(c2nccn2Cc2cccnc2)C1` (configuration not stated), the cytotoxicity at 70.5 h was -8.01%.
For `CC(=O)N1CC(=O)N(c2ccccc2)CC12CCN(Cc1cccs1)C2` (configuration not stated), the cytotoxicity at 70.5 h was -5.96%.
Work on `CCCC(CNc1cc(C(C)C)nc2ccnn12)N(C)C` (configuration not stated) yielded a cytotoxicity at 70.5 h of 39.1%.
Work on `COc1ccc(CNC(=O)CCc2nnc3ccccn3c2=O)cc1` yielded a cytotoxicity at 70.5 h of 20.7%.
Compound `CN(CCO)C(=O)c1coc(CN2CCN(c3ccccc3F)CC2)n1` has a cytotoxicity at 70.5 h of -7.76%.
In the case of `Cc1nonc1C1CCCN1C(=O)CCc1cc2n(n1)CCCNC2` (configuration not stated), the cytotoxicity at 70.5 h is reported as -7.72%.
With `O=C(NCCc1ccccn1)N1CCOC(c2ccccc2Cl)C1` (configuration not stated) the cytotoxicity at 70.5 h was -5.38%.
In the case of `COCCS(=O)(=O)Nc1ccc(-n2nccc2C(F)(F)F)cc1`, the cytotoxicity at 70.5 h is reported as 18.2%.
In the case of `O=C(C(NCc1cccc(F)c1F)c1ccccc1)N1CCOCC1` (configuration not stated), the cytotoxicity at 70.5 h is reported as -1.89%.
For `O=C(Cc1ccccc1)N1C[C@@H]2OCCN(CC3CCCO3)[C@@H]2C1` (some centres not stated), the cytotoxicity at 70.5 h was -6.14%.
In the case of `CN1CCCCC1(C)C(=O)N1CCC(c2ccccn2)CC1` (configuration not stated), the cytotoxicity at 70.5 h is reported as 14.5%.
`CC(=O)NC[C@@H]1C=C(C)[C@H](CC(=O)NCCN(C)C)C[C@H]1C(C)C` showed a cytotoxicity at 70.5 h of 23.8%.
For `Cn1cc(NC(=O)c2cccc(C(F)(F)F)c2)c(=O)n(C)c1=O`, the cytotoxicity at 70.5 h was -2.92%.
Compound `Cc1c(NC(=O)C(C)N(C)C)c(=O)n(-c2ccccc2)n1C` (configuration not stated) has a cytotoxicity at 70.5 h of -1.07%.
Work on `COc1ccncc1NC(=O)c1[nH]nc(C(C)C)c1Br` yielded a cytotoxicity at 70.5 h of -3.93%.
For `OCC1CCCN1c1cc(NCCNc2cccnn2)ncn1` (configuration not stated), the cytotoxicity at 70.5 h was -6.7%.
For `COc1ccccc1OCC(=O)NS(=O)(=O)c1ccc(F)cc1F`, the cytotoxicity at 70.5 h was -8.29%.
`c1csc(-c2nc(CN3CCOC(Cn4cccn4)C3)cs2)c1` (configuration not stated) showed a cytotoxicity at 70.5 h of -8.48%.
With `Cc1cc(-c2cnc(N3CCCC(C)C3)nc2-c2cccnc2C)on1` (configuration not stated) the cytotoxicity at 70.5 h was 23.3%.
Work on `Cc1nc2ccccn2c1CC(=O)N[C@@H]1CC[C@@H](N2CCCC2)[C@@H]1O` yielded a cytotoxicity at 70.5 h of -5.16%.
`N#Cc1cccnc1NCCNC(=O)NCCSC(F)(F)F` gave a cytotoxicity at 70.5 h of -10.1%.
Work on `NS(=O)(=O)c1cc(C(=O)N2CCCCC2)cs1` yielded a cytotoxicity at 70.5 h of -4.34%.
`O=C(Cc1noc(C(=O)NCC2CC2)n1)Nc1cccc(C(F)(F)F)c1` gave a cytotoxicity at 70.5 h of -7.55%.
Work on `CCn1nccc1CNC(=O)C1CCCCC1` yielded a cytotoxicity at 70.5 h of -0.635%.
`CN(C)C(=O)N1CCc2c(nnn2C)C1COCC1CC1` (configuration not stated) gave a cytotoxicity at 70.5 h of -2.28%.
`CC(C)c1cc(C2CCCN2Cc2nc(-c3ccco3)no2)no1` (configuration not stated) gave a cytotoxicity at 70.5 h of -2.57%.
Work on `COc1cc2[nH]c(=O)c(CN3CCCC(CO)C3)cc2c(OC)c1OC` (configuration not stated) yielded a cytotoxicity at 70.5 h of -13.1%.
For `Nc1cc(CC2COc3ccccc3C2)ccn1` (configuration not stated), the cytotoxicity at 70.5 h was 11.8%.
For `COc1cc(N2C[C@H]3CCC[C@@H](CN(C)C4CC4)[C@H]3C2)ncn1`, the cytotoxicity at 70.5 h was -1.7%.
`Cc1cc(C)n2c(CNCCNc3ccccc3)cnc2n1` gave a cytotoxicity at 70.5 h of -1.23%.
Compound `CNS(=O)(=O)CCCN1CCCC1c1noc(C)n1` (configuration not stated) has a cytotoxicity at 70.5 h of -3.7%.
Work on `Cc1ccc(C(CNC(=O)c2cc(=O)c3ccccc3[nH]2)N(C)C)cc1` (configuration not stated) yielded a cytotoxicity at 70.5 h of -4.48%.
`COCCNC(=O)C1CN(Cc2csc(C)n2)Cc2ccnn2C1` (configuration not stated) showed a cytotoxicity at 70.5 h of -8.82%.
With `FC(F)(F)Cn1ccnc1CNCCn1cccn1` the cytotoxicity at 70.5 h was -6.92%.
With `Cc1noc2nc(C3CC3)c(Cl)c(C(=O)O)c12` the cytotoxicity at 70.5 h was -7.07%.
With `c1cc2n(n1)CC(CNCc1ccc(OCC3CC3)nc1)CN2` (configuration not stated) the cytotoxicity at 70.5 h was 1.11%.
`O=C(NC1CCCC1)C1(Cc2cc(C3CCOC3)no2)CCNCC1` (configuration not stated) gave a cytotoxicity at 70.5 h of -5%.
With `COCC(=O)N1CCCC1c1cc(Nc2nnc(C)s2)nc(C)n1` (configuration not stated) the cytotoxicity at 70.5 h was 21.4%.
`Cc1ccc(CN2CCCn3c(nc(CN4CCCC4)cc3=O)C2)s1` gave a cytotoxicity at 70.5 h of -8.86%.
With `Cc1nc(CCNC(=O)N2CCC(Cc3cnn(C)c3)C2)cs1` (configuration not stated) the cytotoxicity at 70.5 h was -29.6%.
With `CCOc1ccc(SCCNS(=O)(=O)CC)cc1` the cytotoxicity at 70.5 h was -11.3%.
`Cc1cnn(CC(C)Nc2nc(C)cc(N(C)C)n2)c1` (configuration not stated) showed a cytotoxicity at 70.5 h of -6.1%.
`O=C(COCC1CC1)N1CCSCC1` showed a cytotoxicity at 70.5 h of 2.26%.
Compound `Cc1cccc(N2CCCC3(C2)CN(S(C)(=O)=O)CCO3)c1` (configuration not stated) has a cytotoxicity at 70.5 h of -4.48%.
For `Cc1nnc([C@]23COC[C@H]2CN(Cc2cnn(C)c2)C3)o1`, the cytotoxicity at 70.5 h was -4.29%.
Work on `CCOc1nc2cccnc2n(CC(=O)NCCOC)c1=O` yielded a cytotoxicity at 70.5 h of -14.5%.
`Cc1nnn2c1COCC(CNC(=O)c1ccnnc1)C2` (configuration not stated) showed a cytotoxicity at 70.5 h of -0.292%.
Compound `CNC(=O)[C@@]12CCO[C@@H]1CCN(S(=O)(=O)c1ccc(C)cc1)C2` has a cytotoxicity at 70.5 h of -4.45%.
`Cc1cc(NC2CCC(=O)N(C)C2)n2nccc2n1` (configuration not stated) showed a cytotoxicity at 70.5 h of -9.21%.
In the case of `CN(C)Cc1cnc(C2CCN(C(=O)c3cccc(F)c3)C2)[nH]1` (configuration not stated), the cytotoxicity at 70.5 h is reported as 20.2%.
In the case of `Cc1nn(C)cc1CN1CCC(c2ncc(Cl)cc2S(C)(=O)=O)CC1`, the cytotoxicity at 70.5 h is reported as -6.84%.
In the case of `COc1ccccc1NC(=O)Cc1c(C)nc2c(c1C)c(=O)[nH]n2C`, the cytotoxicity at 70.5 h is reported as -3.59%.
Compound `COc1ccc(C(=O)N2CCCC3(CCCC(=O)N3C)C2)cc1` (configuration not stated) has a cytotoxicity at 70.5 h of -6.78%.
With `Cc1cnc(CCNC(=O)NCCOc2ncccc2Cl)s1` the cytotoxicity at 70.5 h was -2.69%.
Work on `CCn1c(CN(C)Cc2cnc(C)s2)nc2cc(F)ccc21` yielded a cytotoxicity at 70.5 h of 10.8%.
`C=C(C)CN1CCN(Cc2cnc(OC)nc2)CC1` gave a cytotoxicity at 70.5 h of 6.5%.
With `CCN(C)c1ncnc2c1CCN(S(=O)(=O)c1ccccc1)CC2` the cytotoxicity at 70.5 h was -5.89%.
For `CC(=O)N1CC2(CCN(S(=O)(=O)N(C)C)CC2)C2(CCNC2=O)C1` (configuration not stated), the cytotoxicity at 70.5 h was -1.55%.
For `O=C(O)[C@]12CCCN(Cc3ccco3)C[C@H]1CN(c1ncccn1)C2`, the cytotoxicity at 70.5 h was -12.1%.
With `CC(C)N1CCC(C(=O)N2CCC(C(O)c3nccn3C)CC2)CC1` (configuration not stated) the cytotoxicity at 70.5 h was -11.2%.
`Cc1occc1C(=O)N1Cc2nccn2CC(CN2CCCC2)C1` (configuration not stated) showed a cytotoxicity at 70.5 h of -14.1%.
With `Cn1cc(C(=O)NCc2ccc(N3CCNC(=O)C3)c(F)c2)cn1` the cytotoxicity at 70.5 h was -4.04%.
`CNc1ccc(Cl)cc1C(=O)N1CCC(Cn2cc(CN)nn2)CC1` gave a cytotoxicity at 70.5 h of 1.05%.
With `Cc1occc1CNC(=O)N(CCCO)C1CCc2ccccc21` (configuration not stated) the cytotoxicity at 70.5 h was -1.74%.
For `CCCc1nc2c(c(C)c(C)n2Cc2ccncc2)c(N)c1CC`, the cytotoxicity at 70.5 h was 53.6%.
With `CC(=O)NCCCSC1CCN(c2c(F)cccc2F)C1=O` (configuration not stated) the cytotoxicity at 70.5 h was 22.9%.
For `Cn1cc([C@@H]2CN(S(=O)(=O)c3cccs3)C[C@H]2N)c2ccncc21`, the cytotoxicity at 70.5 h was 4.81%.
Compound `O=C(c1ccc(-n2ccnc2)nn1)N1CCCC1CCc1ccccc1` (configuration not stated) has a cytotoxicity at 70.5 h of -19.5%.
Work on `Cc1cc(CN2CCCCC2Cn2cncn2)no1` (configuration not stated) yielded a cytotoxicity at 70.5 h of -12.8%.
`CO[C@H]1CC[C@H]2[C@H]1OCCN2C(=O)c1nn(C)c2ccccc12` showed a cytotoxicity at 70.5 h of -3.21%.
For `O=c1c2cnc(N3CCCCC3)nc2ccn1-c1ccccc1F`, the cytotoxicity at 70.5 h was 8.21%.
For `OC1(CNc2ccccc2)CCNCC1`, the cytotoxicity at 70.5 h was -7.62%.
With `Cc1c(Br)cccc1C(=O)Nc1cc(C(N)=O)n(C)c1` the cytotoxicity at 70.5 h was -6.66%.
In the case of `COc1c(C(=O)NCc2cccnc2)nnn1Cc1ccccc1`, the cytotoxicity at 70.5 h is reported as -7.04%.
Compound `CN(C)CCNC(=O)c1nc2c(o1)CN(C(=O)c1cccnc1)C2` has a cytotoxicity at 70.5 h of 10.9%.
With `CC(c1nc(C(C)(C)C)no1)N1CCC(N2CCCC2)CC1` (configuration not stated) the cytotoxicity at 70.5 h was 4.89%.
Work on `Cc1cc2c(=O)n3c(nc2s1)CCN(C(=O)c1ccnn1C(C)C)CC3` yielded a cytotoxicity at 70.5 h of -7.45%.
